# Test results: patent publication US10023602B2, “Hamamelitannin analogues and uses thereof” (Universiteit Gent, priority 2014, dated 2018)
# How the values were obtained:
# [1] = test system: methicillin resistant S. aureus Mu50 strain (S. aureus ATCC700699) biofilm; assay: Biofilm susceptibility to vancomycin, combination treatment regimen (mature biofilm treated with compound plus vancomycin); format: cell-based; conditions: for Combin. (100 μM): percentage Colony Forming Units (CFU's) per biofilm: compound 100 μM together with VAN 20 μg/ml on mature biofilm, compared to the untreated (negative) control; for EC50: concentration needed to get 50% killing compared to antibiotic alone (VAN 20 μg/ml) and complete killing, read-out: Combin. (EC50)
# Procedure, shortened: (§1)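 Mu50 biofilms from 10^8 CFU/ml inoculum (4 h adhesion, then 20 h, 37 °C). Pre-treatment: compound (0.1-250 μM) present during biofilm formation, then vancomycin 20 μg/ml alone 24 h; combination: mature biofilm given vancomycin 20 μg/ml plus compound 24 h. Survivors counted by plating versus vancomycin alone.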
# [2] = test system: methicillin resistant S. aureus Mu50 strain (S. aureus ATCC700699) biofilm; assay: Biofilm susceptibility to vancomycin, pre-treatment regimen (biofilm formed in presence of compound, then vancomycin); format: cell-based; conditions: for Pretreat (100 μM): percentage Colony Forming Units (CFU's) per biofilm: compound 100 μM during biofilm formation, then VAN 20 μg/ml, compared to the untreated (negative) control; for EC50: concentration needed to get 50% killing compared to antibiotic alone (VAN 20 μg/ml) and complete killing, read-out: Pretreat. (EC50)
# Procedure, shortened: as §1
SMILES,Combin. (100 μM): percentage Colony Forming Units (CFU's) per biofilm [1] [percentage],EC50 [1] [µM],Pretreat (100 μM): percentage Colony Forming Units (CFU's) per biofilm [2] [percentage],EC50 [2] [µM]
"O=C(NC[C@H]1OC[C@@](O)(CNC(=O)c2ccc(-c3ccccc3)cc2)[C@@H]1O)c1ccnnc1 [compound 253, N-(((2R,3R,4S)-4-([1,1′-biphenyl]-4-carboxamidomethyl)-3,4-dihydroxytetrahydrofuran-2-yl)methyl)pyridazine-4-carboxamide]",22.50,45.4,4.25,8.54
"O=C(NC[C@]1(O)CO[C@H](CN2C(=O)c3ccccc3C2=O)[C@H]1O)c1ccc(-c2ccccc2)cc1 [compound 254, N-(((3S,4R,5R)-5-((1,3-dioxoisoindolin-2-yl)methyl)-3,4-dihydroxytetrahydrofuran-3-yl)methyl)-[1,1′-biphenyl]-4-carboxamide]",30.44,57.1,3.52,4.79
"O=C(NC[C@]1(O)CO[C@H](CNC(=O)c2ccccc2Cl)[C@H]1O)c1ccnnc1 [compound 255, N-(((3S,4R,5R)-5-((2-chlorobenzamido)methyl)-3,4-dihydroxytetrahydrofuran-3-yl)methyl)pyridazine-4-carboxamide]",25.78,55.7,8.03,15
"O=C(NC[C@H]1OC[C@@](O)(CNC(=O)c2ccnnc2)[C@@H]1O)c1ccc(-c2ccccc2)cc1 [compound 256, N-(((3S,4R,5R)-5-([1,1′-biphenyl]-4-carboxamidomethyl)-3,4-dihydroxytetrahydrofuran-3-yl)methyl)pyridazine-4-carboxamide]",29.97,53.4,14.25,15.5
"O=C(NC[C@H]1OC[C@@](O)(CNC(=O)c2ccnnc2)[C@@H]1O)c1ccnnc1 [compound 257, N,N′-(((2R,3R,4S)-3,4-dihydroxytetrahydrofuran-2,4-diyl)bis(methylene))bis(pyridazine-4-carboxamide)]",17.13,18,1.71,7.13
"O=C(NC[C@]1(O)CO[C@H](CN2C(=O)c3ccccc3C2=O)[C@H]1O)c1ccnnc1 [compound 258, N-(((3S,4R,5R)-5-((1,3-dioxoisoindolin-2-yl)methyl)-3,4-dihydroxytetrahydrofuran-3-yl)methyl)pyridazine-4-carboxamide]",23.56,11.4,0.73,5.85
"O=C(Cc1ccccc1)NC[C@]1(O)CO[C@H](CNC(=O)c2ccccc2Cl)[C@H]1O [compound 259, 2-chloro-N-(((2R,3R,4S)-3,4-dihydroxy-4-((2-phenylacetamido)methyl)tetrahydrofuran-2-yl)methyl)benzamide]",71.25,,55.12,
"O=C(CCc1ccccc1)NC[C@]1(O)CO[C@H](CNC(=O)c2ccccc2Cl)[C@H]1O [compound 260, 2-chloro-N-(((2R,3R,4S)-3,4-dihydroxy-4-((3-phenylpropanamido)methyl)tetrahydrofuran-2-yl)methyl)benzamide]",71.12,,57.01,
"CN(C[C@H]1OC[C@@](O)(CNC(=O)c2ccccc2)[C@@H]1O)C(=O)c1ccccc1 [compound 261, N-(((2R,3R,4S)-4-(benzamidomethyl)-3,4-dihydroxytetrahydrofuran-2-yl)methyl)-N-methylbenzamide]",10.02,24.3,6.09,8.5
"O=C(NC[C@H]1OC[C@@](O)(CNC(=O)c2cc(O)c(O)c(O)c2)[C@@H]1O)c1cc(O)c(O)c(O)c1 [compound 264, N,N′-(((2R,3R,4S)-3,4-dihydroxytetrahydrofuran-2,4-diyl)bis(methylene))bis(3,4,5-trihydroxybenzamide)]",57.74,191,22.35,63.8
"O=C(NC[C@@H]1OC[C@@](O)(CNC(=O)c2ccccc2)[C@@H]1O)c1ccccc1 [compound 270, N,N′-(((2S,3R,4S)-3,4-dihydroxytetrahydrofuran-2,4-diyl)bis(methylene))dibenzamide]",55.70,> 250,51.80,224
